Results from publication PMC11061149, “Protein mimetic 2D FAST rescues alpha synuclein aggregation mediated early and post disease Parkinson’s phenotypes” (Nature Communications, 2024).
Values joined by “and” are separate entries in the source; they are usually repeats but may differ in a detail not shown here. Equal entries are not always repeated.

Assays:
[1] = Parallel artificial membrane permeability assay (PAMPA); assay type: in vitro ADME
Experimental: The permeability of various ligands was assessed with a PAMPA kit (BioAssay Systems, Hayward, CA) according to a previously described protocol. Briefly, 4% lecithin solution (LS) was prepared in dodecane and 5 µL was applied to the donor plate membrane. Then, 300 μL PBS was added to the acceptor plate. Subsequently, 200 µL of ligand solutions (500 μM) and various permeability standards (high, medium, and low, 500 μM) were added to the donor plate membrane. The donor plate was placed in the acceptor plate and incubated at r.t. for 18 h. The solutions were then moved from the acceptor plate into a clear-bottom 96-well plate (Corning Inc., Corning, NY) and absorbance was recorded at 360 nm for various ligands and 275 nm for permeability standards. The permeability was calculated using Eq. (1) below, where the permeability rate, C, equals 7.72 × 10^–6, ODA is the absorbance of the acceptor solution, and ODE is the absorbance of the equilibrium standard.1 Pe=C×−ln1−ODA/ODEcm/s

[2] = system: UA196 worms (human αS and GFP in DA neurons); experiment: Confocal counting of healthy DA neurons in UA196 worms, early treatment (day two and four); assay type: in vivo, C. elegans; set-up: key to Total neurons, Average: healthy DA neurons per replicate of 10 worms, max 60
Text: The aggregation of αS is associated with the neurodegeneration of DA neurons, which is a pathological hallmark of PD. Next, we investigated the neuroprotective effect of NS163 on the intraneuronal αS aggregation-mediated degeneration of DA neurons in a well-established C. elegans PD model (UA196)[20],[72]–[75]. The UA196 worms express both human αS and GFP in DA neurons under the control of the dopamine promoter genotype (Pdat-1::GFP; Pdat-1::α-SYN). The expression and aggregation of αS in six DA neurons that are located within the anterior region of worms lead to progressive neurodegeneration characteristics during the aging of UA196 worms. This strain has been used to gain insights into the PD-associated mechanisms and to assess the neuroprotective effect of ligands against the intraneuronal αS aggregation[20],[72]–[75]. During the aging of worms, αS protein aggregates and degenerates the DA neurons as represented by the gradual loss of cell bodies as observed from day 3 (Fig. 7b, c, filled red arrow) to day 5 (Fig. 7d, e, empty red arrow), to day 15 (Fig. 7f, g, empty red arrow). Additionally, there was fragmentation and blebbing of neurites from day 3 (Fig. 7b, c, filled yellow arrow) to day 5 (Fig. 7d, e, empty yellow arrow), which has been observed by others as well[72]–[75]. The maximum number of healthy DA neurons in one UA196 worm is six on day 3 (no degeneration) and we used 10 worms/biological replicate, which makes a total of 60 healthy DA neurons/biological replicate. Therefore, for each study, the maximum number of healthy DA neurons in UA196 worms is 60 as an average for each biological replicate. […] None of the UA196 worms had all six healthy DA neurons on day 5 (Fig. 7k, -NS163) and there was a gradual decline in the total number of healthy DA neurons in UA196 worms (Supplementary Fig. 26a). […] The average number of intact DA neurons in UA196 worms treated with NS163 was 59.5, 58.7, and 57.3 on day five, 10, and 15, respectively (Fig. 7j, red line). Additionally, the total number of treated worms with all six intact DA neurons were 57, 52, and 47 on day 5, 10, and 15, respectively (Fig. 7k, Supplementary Fig. 26b).
In UA196 strain, human αS and GFP are expressed in DA neurons under control of a dopamine transporter-specific promoter [Pdat-1::α-syn+Pdat-1::GFP], which results in age-dependent neurodegeneration of six DA neurons.
This experiment was performed based on previously described protocols with slight modifications[24],[65],[88]. Briefly, the worm strains (NL5901 or UA196) were bleached at the same time and the eggs were incubated on PLATE 1. On day two, the worms were divided into two batches. One half of the worms were transferred (using M9 buffer) on PLATE 2 (without ligand) and the second half of the worms were transferred to PLATE 3 (with ligand). The concentration of the ligands varied from 10–50 µM as described in the main manuscript. The worms were incubated on PLATE 2 or PLATE 3 up to day 3 at 20 °C in an incubator with constant humidity. On day four, the ligand (10–50 µM, stock conc. = 10 mM in DMSO, DMSO from 0.1–0.5%, v/v) was added again to PLATE 3. For confocal imaging, at least 10 worms per condition (from PLATE 2 or PLATE 3) were transferred to a cover slide containing an anesthetic (40 mM sodium azide), and mounted on glass microscope slide containing 2% agarose pads using a reported protocol. The images of the worms were collected using an Olympus Fluoview FV3000 confocal/2-photon microscope (40 x Plan-Apo/1.3 NA objective with DIC capability) and processed using the OlympusViewer in ImageJ software. For NL5901 worms, the inclusions of the aggregated αS (GFP puncta in the muscle cells) were manually counted (10 worms per condition) for the five-day imaging period (day 5 to day 9) for PLATE 2 or PLATE 3. […]

[3] = UA196+NS132, Day 3, 10 per trial
[4] = UA196+NS132, Day 5, 10 per trial
[5] = UA196+NS132, Day 10, 10 per trial
[6] = UA196+NS132, Day 15, 10 per trial

Cc1ccc(NC(=O)c2ccc(NC(=O)c3ccc([N+](=O)[O-])c(NCCc4c[nH]c5ccccc45)n3)c(NCC3CCCCC3)n2)c(OCC(=O)O)n1 [NS132]
cell permeability (PAMPA), comparison in words [1]: lower in comparison to the PAMPA medium standard | PAMPA permeability (Pe), individual trials ([1]; 500 μM in donor, 18 h, r.t., unit from Eq. 1): 26.9 nm/s and 24.1 nm/s and 27.1 nm/s and 28.9 nm/s | Papp at 18 h, 500 μM ([1]; PAMPA, 500 μM in donor, 18 h, r.t., unit from Eq. 1, read-out: PAMPA permeability (Pe), individual trials): 29.2 nm/s | number of intact DA neurons in UA196 worms (max. 60) ([2]; 50 µM ligand on day two and four, day 15 (untreated 13.5)): 51 | Total neurons, Average ([2]; UA196+NS132, Day 3): 59.5 | Number of worms with 1 neurons [2, 3]: 0 | Number of worms with 2 neurons [2, 3]: 0 | Number of worms with 6 neurons [2, 3]: 9 and 10 | number of worms with 3 neurons [2, 3]: 0 | number of worms with 4 neurons [2, 3]: 0 | Total neurons, Average ([2]; UA196+NS132, Day 5): 55.8333 | Number of worms with 1 neurons [2, 4]: 0 | Number of worms with 2 neurons [2, 4]: 0 | Number of worms with 5 neurons [2, 4]: 2 and 3 and 4 | Number of worms with 6 neurons [2, 4]: 7 and 8 and 6 and 5 | number of worms with 3 neurons [2, 4]: 0 | Total neurons, Average ([2]; UA196+NS132, Day 10): 53.1667 | Number of worms with 1 neurons [2, 5]: 0 | Number of worms with 2 neurons [2, 5]: 0 | Number of worms with 6 neurons [2, 5]: 6 and 4 and 5 | number of worms with 3 neurons [2, 5]: 0 | Total neurons, Average ([2]; UA196+NS132, Day 15): 51 | Number of worms with 1 neurons [2, 6]: 0 | Number of worms with 2 neurons [2, 6]: 0 | Number of worms with 5 neurons [2, 6]: 5 and 4 and 3 | Number of worms with 6 neurons [2, 6]: 3 and 4 and 5 | Total neurons, UA196 worms+Ligands ([2]; UA196 worms+Ligands, one value per trial, day not given for ligand (controls: Day 3, Day 15)): 53 and 48 and 50 and 54 and 49 and 52
